In patent publication US7087420B1, “Microbial β-glucuronidase genes, gene products and uses thereof” (Cambia, priority 1997, dated 2006):

Columns and labels:
Millin rice plants = details: MUG 1 mM in water
Procedure: Seeds of T0 plants, which are the primary transformed plants, from pTANG86.1/2/3/4/5/6 (see Table 7 below) transformed plants, seeds of pCAM1301 (E. coli GUS with N358-Q change to remove N-glycosylation signal sequence) transformed plants, or untransformed Millin rice seeds are germinated in water containing 1 mM MUG or 50 μg/mL X-GlcA with or without hygromycin (for nontransformed plants). Resulting plants are observed for any reduced growth due to the presence of MUG, X-GlcA.

rice seeds = experiment: Growth of rice plants germinated in water containing glucuronide substrate; type: in vivo; details: 50 μg/mL X-GlcA in germination water
[1] = test system: Staphylococcus β-glucuronidase (GUS^Stp, Staph GUS), wild type, SEQ ID NO: 18 (DNA SEQ ID NO: 1); experiment: Inhibition of Staphylococcus GUS by end product glucuronic acid; type: biochemical
Procedure: GUS^Stp enzyme activity is also resistant to inhibition by detergents. Enzyme activity assays are measured in the presence of varying amounts of SDS, Triton® X-100, or sarcosyl. […] In SDS, the enzyme still had substantial activity (60–75% activity). In addition, GUS^Stp is not inhibited by the end product of the reaction. Activity is determined normally or in the presence of 1 or 10 mM glucuronic acid. No inhibition is seen at either 1 or 10 mM glucuronic acid (FIG. 11). The enzyme is also assayed in the presence of organic solvents, dimethylformamide (DMF) and dimethylsulfoxide (DMSO), and high concentrations of NaCl (FIG. 12).

[2] = biological target: T1, E. coli β-glucuronidase (E. coli GUS, GUS^Eco), wild type, SEQ ID NO: 23 (Escherichia coli, UniProt P05804); details: background statement, no concentration; cited from earlier work
T1 construct: pNPG substrate; functional homotetramer
T1 sequence (P05804 whole entry): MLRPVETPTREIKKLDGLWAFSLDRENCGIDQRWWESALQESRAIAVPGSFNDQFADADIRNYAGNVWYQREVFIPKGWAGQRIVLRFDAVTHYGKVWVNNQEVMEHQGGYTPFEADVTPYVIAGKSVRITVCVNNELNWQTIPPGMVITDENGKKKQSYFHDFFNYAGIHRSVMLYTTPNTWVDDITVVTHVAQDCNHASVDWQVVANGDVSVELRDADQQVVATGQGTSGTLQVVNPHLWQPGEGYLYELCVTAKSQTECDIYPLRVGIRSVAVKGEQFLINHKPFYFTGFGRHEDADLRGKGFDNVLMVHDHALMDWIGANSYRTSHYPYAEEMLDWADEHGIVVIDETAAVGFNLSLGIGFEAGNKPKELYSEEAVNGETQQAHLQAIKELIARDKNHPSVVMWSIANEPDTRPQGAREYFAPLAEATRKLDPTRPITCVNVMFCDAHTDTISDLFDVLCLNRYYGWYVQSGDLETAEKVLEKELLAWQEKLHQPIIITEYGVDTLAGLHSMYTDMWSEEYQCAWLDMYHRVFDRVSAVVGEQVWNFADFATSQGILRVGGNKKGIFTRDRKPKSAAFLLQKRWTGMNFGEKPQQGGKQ

[3] = chromophore released from pNPG; cited from earlier work
[4] = test system: Staphylococcus β-glucuronidase (GUS^Stp, Staph GUS), wild type, SEQ ID NO: 18 (DNA SEQ ID NO: 1); experiment: Kinetics of pNPG hydrolysis by Staphylococcus GUS (spectrophotometric p-nitrophenol release); type: biochemical
Procedure: The thermal stability of GUS^Stp and E. coli GUS enzymes are determined at 65° C., using a substrate that can be measured by spectrophotometry, for example. One such substrate is p-nitrophenyl β-D-glucuronide (pNPG), which when cleaved by GUS releases the chromophore p-nitrophenol. At a pH greater than its pKa (approximately 7.15), the ionized chromophore absorbs light at 400–420 nm, therefore appears in the yellow range of visible light. Briefly, reactions are performed in 50 mM Na3PO4 pH 7.0, 10 mM 2-ME, 1 mM EDTA, 1 mM pNPG, and 0.1% Triton® X-100 at 37° C. The reactions are terminated by the addition of 0.4 ml of 2-amino-2-methylpropanediol, and absorbance measured at 415 nm against a substrate blank. Under these conditions, the molar extinction coefficient of p-nitrophenol is assumed to be 14,000: One unit is defined as the amount of enzyme that produces 1 nmole of product/min at 37° C.
Turnover number is calculated as nmoles of pNPG converted to p-nitrophenol per min per μg of purified protein.

yeast colonies = experiment: Yeast colonies on X-GlcA expression plates containing tunicamycin; type: cell-based; details: tunicamycin 5, 10, and 20 μg/ml
Procedure: (§1) To determine whether the N-glycosylation site has a deleterious effect, on secretion, yeast colonies are streaked on expression plates containing X-GlcA and from 0.1 to 20 μg/ml of tunicamycin (to inhibit all N-glycosylation).

yeast strain InvSc1 = experiment: Growth of transformed yeast colonies on expression plates with tunicamycin; details: tunicamycin 5, 10, and 20 μg/ml
Procedure: Yeast strain InvSc1 (mat α his3-Δ1 leu2 trp1-289 ura3-52) from Invitrogen (Carlsbad, Calif.) is transformed with the E. coli GUS and Staphylococcus GUS plasmids indicated in the table below. Transformants are plated on both selection media (minimal media supplemented with His, Leu, Trp, and 2% glucose as a carbon source to suppress the expression of the gene driven by the gal1 promoter) and expression media (media supplemented with His, Leu, Trp, 1% raffinose, 1% galactose as carbon source and with 50 μg/ml X-GlcA).
as §1

**Q.** With `Cc1cc(=O)oc2cc(O[C@@H]3O[C@H](C(=O)O)[C@@H](O)[C@H](O)[C@H]3O)ccc12` [MUG, 4-methylumbelliferyl β-D-glucuronide] as the compound, how does the “Effect on roots of rice plants (reduced growth)” value (Millin rice plants) read?
**A.** somewhat stunted

**Q.** Which “toxic effects / reduced growth of plants” value (rice seeds) does the source give for `O=C(O)[C@H]1O[C@@H](Oc2c[nH]c3ccc(Br)c(Cl)c23)[C@H](O)[C@@H](O)[C@@H]1O` [X-GlcA, 5-bromo-4-chloro-3-indolyl β-D-glucuronide] here?
**A.** No toxic effects

**Q.** For `O=C(O)[C@H]1OC(O)[C@H](O)[C@@H](O)[C@@H]1O` (stereo partly drawn) [glucuronic acid], which “Inhibition by glucuronic acid” value ([1]; 1 mM glucuronic acid (FIG. 11)) is on record?
**A.** No inhibition

**Q.** What about the “Inhibition by glucuronic acid” value ([1]; 10 mM glucuronic acid (FIG. 11)) of the same compound?
**A.** No inhibition

**Q.** And the “Inhibition by glucuronic acid (summary statement)” value ([1]; unlike E. coli GUS, FIG. 11)?
**A.** not substantially inhibited

**Q.** What about the “Inhibition by end product (glucuronic acid)” value [2] of the same compound?
**A.** inhibited

**Q.** Which pKa [3] does the source give for `O=[N+]([O-])c1ccc(O)cc1` [p-nitrophenol] here?
**A.** approximately 7.15

**Q.** What does the source list for `O=C(O)[C@H]1O[C@@H](Oc2ccc([N+](=O)[O-])cc2)[C@H](O)[C@@H](O)[C@@H]1O` [pNPG, p-nitrophenyl β-D-glucuronide]?
**A.** Vmax relative to E. coli GUS ([4]; GUS^Stp vs E. coli GUS, 37° C.): about the same; Turnover number relative to E. coli GUS ([4]; GUS^Stp vs E. coli GUS, 37° C. (FIG. 8)): approximately the same as E. coli GUS; Vmax ([4]; Staph GUS, substrate pNPG, 37° C.): 80 nmol/min/µg

**Q.** For tunicamycin [listing 1 of 2 here], which “growth of yeast colonies” value (yeast colonies) is on record?
**A.** do not grow

**Q.** For tunicamycin [listing 2 of 2 here], which “Yeast colony growth (toxicity)” value (yeast strain InvSc1) is on record?
**A.** do not grow
